Legend:
CRTH2 [1] = target: T1, CRTH2 (Homo sapiens, UniProt Q9Y5Y4); assay: Radioligand binding Scintillation Proximity Assay ([3H]PGD2, hCRTH2-CHO cell membranes); set-up: host or cells: CHO cells
T1 sequence (Q9Y5Y4 1-395): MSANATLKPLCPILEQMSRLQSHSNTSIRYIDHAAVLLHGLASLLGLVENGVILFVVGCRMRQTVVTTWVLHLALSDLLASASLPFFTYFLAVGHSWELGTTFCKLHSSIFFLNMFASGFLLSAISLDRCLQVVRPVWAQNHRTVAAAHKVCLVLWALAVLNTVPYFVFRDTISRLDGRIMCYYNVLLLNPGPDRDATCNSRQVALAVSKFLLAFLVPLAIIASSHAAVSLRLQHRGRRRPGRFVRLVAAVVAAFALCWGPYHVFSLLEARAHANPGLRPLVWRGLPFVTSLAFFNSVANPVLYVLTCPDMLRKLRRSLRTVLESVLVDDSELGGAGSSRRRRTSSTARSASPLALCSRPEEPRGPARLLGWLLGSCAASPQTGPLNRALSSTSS
Protocol: Adherent CHO cells expressing hCRTH2 (Euroscreen, Belgium) were cultured in 225 cm2 cell culture flasks (Corning, USA) in 30 ml of medium. After two rinses of phosphate buffered saline (PBS), cells were harvested in 10 ml of PBS containing 1 mM EDTA, centrifuged at 500×g for 5 min at 4° C. and frozen at −80° C. The pellet was re-suspended in 50 mM Tris-HCl, pH 7.4, 2 mM EDTA, 250 mM Sucrose, containing protease inhibitor cocktail tablets, (Complete EDTA-free, Roche, Germany) and incubated 30 min at 4° C. Cells were disrupted by nitrogen cavitation (Parr Instruments, USA) at 4° C. (800 p.s.i. for 30 min), and centrifuged at 500×g for 10 min at 4° C. Pellet containing nuclei and cellular debris was discarded and supernatant was centrifuged 60 min at 4° C. at 45000×g. Membrane pellet was re-suspended in storage buffer (10 mM HEPES/KOH pH 7.4, 1 mM EDTA, 250 mM sucrose, protease inhibitor cocktail tablets) using Dounce homogenization and frozen in liquid nitrogen, and stored at −80° C.
The inhibitory activity can be investigated by a radioligand binding Scintillation Proximity Assay (SPA) (Sawyer et al., Br. J. Pharmocol 2002, 137, 1163-72). The SPA radioligand binding assay was performed at room temperature in binding buffer (10 mM HEPES/KOH pH 7.4, 10 mM MnC12, with protease inhibitor cocktail tablets), containing 1.5 nM [3H]PGD2 (Perkin Elmer), 10-50 μg/ml of hCRTH2—CHO cell membrane protein and 2 mg/ml of Wheat-germ agglutinin Scintillation Proximity Assay beads (RPNQ0001, GE-Healthcare) in a final volume of 100 μl in 96 well plates (Corning, USA). Non-specific binding was determined in the presence of 10 μM PGD2 (Cayman, USA). Competing Compounds of Formula (I) were diluted in dimethylsulphoxide so that the total volume of dimethylsulfoxide was kept constant at 1% dimethylsulphoxide (Me2SO). Serial dilutions of 100 μM to 100 pM were prepared and 10 μl each of the compounds of Formula (I) stock solutions were added to the binding assay reagents and incubated for 90 min with agitation at room temperature. Binding activity was determined by using a 1450 Micro-beta scintillation counter (Wallac, UK).

[2] = In vivo pharmacokinetic evaluation in mouse; set-up: species or system C57BL/6 female mice; details: mice
Protocol: (§1) In order to study the pharmacokinetic (PK) profile of test compounds in vivo, Sprague Dawley male rats or C57BL/6 female mice were dosed intravenously or after oral gavage. For both species, test compounds were dosed in solution at 1 mg/kg for i.v. route (10% ethanol, 10% N,N-dimethylacetamide, 30% propylene glycol, 50% water, v/v) and in suspension at 5 mg/kg (0.5% carboxymethylcellulose suspension, containing 0.25% Tween 20 in water) for oral gavage. PK profile in rat was obtained from 3 animals per dosing route and mouse PK profile was determined from 3 animals for each time points. The volume of administration was 2 mL/kg for i.v. dosing in both species and either 5 mL/kg (rat) or 10 mL/kg (mouse) for oral gavage. Blood samples (100 µL/time point) were collected at 0.083 (5 min), 0.25, 0.5, 1, 4, 7 and 24 hours post-dose for i.v. dosing, and at 0.5, 1, 4, 7 and 24 h for oral dosing, into heparin-Li+ containing tubes. For rats, all blood samples were collected trough a catheter in the carotid artery (placed in the artery the day before the experiment), under light isoflurane anesthesia, and stored on ice until centrifugation and plasma isolation. For mouse, blood samples were collected from intracardiac puncture at sacrifice at each time point and processed as described above for the rat. Plasma samples were stored frozen until analysis (−20° C. to −70° C.). For bioanalysis, samples were processed by protein precipitation (acetonitrile, formic acid 0.1%, addition of 3 volumes) after addition of one internal standard and analysed using a sensitive and selective LC/MS/MS method. An aliquot of the resulting supernatant was subject to LC/MS/MS analysis using a reverse phase column (Waters Xterra, C8, (3.5 μm particle size, 2.1×50 mm) and a short gradient (1 min) from (Solvent A) 85% water, 15% acetonitrile and 0.1% formic acid to (Solvent B) 90% acetonitrile, 10% water and 0.1% formic acid followed by isocratic conditions of Solvent B for 3.5 min at 0.4 mL/min. Column effluent was monitored using a Sciex API 4000 triple quadrupole mass spectrometer with a Turbo V electrospray ion source. Unknown concentrations of test compounds were determined using a calibration curve ranging from 1 to 3000 ng/mL.

CRTH2 [3] = target: T1, CRTH2; assay: PGD2-induced eosinophil cell shape assay in human whole blood; format: cell-based; set-up: endogenous in cells; host or cells: eosinophils in human whole blood from healthy volunteers; details: 10 nM PGD2
Protocol: The test compounds were diluted in dimethylsulphoxide so that the total volume of dimethylsulfoxide was kept constant at 2% dimethylsulphoxide (Me2SO). Serial dilutions of 200 μM to 0.09 μM were prepared. Samples of 90 μl of human blood from healthy volunteers (Centre de Transfusion Sanguine de Genève) were pre-incubated in polypropylene Falcon tubes (BD 352063) for 20 minutes in a water bath at 37° C. with 10 μl of diluted compounds. For CRTH2 activation, 100 μl PGD2 (Cayman 12010) at 20 nM was added (10 nM final) to each tube and cells were maintained at 37° C. For negative control cells were treated with PBS. After 10 minutes, cell activation was stopped with 120 μl Formaldehyde 10% (4% final, Fluka 41650) and cells were rested for 10 minutes at room temperature. Fixed cells were transferred into polypropylene tubes and then treated for 1 hour in a water bath at 37° C. with 2 ml of Triton—Surfact-Amps X-100 (Pierce 28314) at 0.166% (0.13% Triton final). After several washes with PBS (red cells lysed progressively during washes, two washes are necessary), cells were analyzed by flow cytometry on a FACSCalibur.

[4] = In vivo pharmacokinetic evaluation in rat; set-up: species or system Sprague Dawley male rats; details: rats
Protocol: as §1

[5] = oral bioavailability, 5 mg/kg po, 1 mg/kg i.v.
[6] = 1.5 nM [3H]PGD2, hCRTH2-CHO membranes, SPA, read-out: IC50 binding

IC50 (CRTH2 [1]; [6]) | Compound | also measured
 | O=C(O)CN1C(=O)C2(NC(=O)N(Cc3cc(Cl)ccc3F)C2=O)c2cc(Cl)ccc21 (single isomer, unassigned; (+)) [(+)-Enantiomer, (+)-[5′-Chloro-1-(5-chloro-2-fluorobenzyl)-2,2′,5-trioxospiro[imidazolidine-4,3′-indol]-1′(2′H)-yl]acetic acid, reference compound] | IC50 (CRTH2 [1]; comparison table with (+)-Enantiomer, read-out: Binding IC50): 21 nM; activity on DP2 (CRTH2 [1]; first eluting enantiomer compared with second eluting enantiomer): better activity; Cmax ([2]; female, C57BL/6, mouse, plasma, po, 5 mg/Kg): 113 ng/mL; Fz in mice [2, 5]: 6%; IC50 (CRTH2 [3]): 50 nM; Cmax ([4]; male, Sprague Dawley, rat, plasma, po, 5 mg/Kg): 151 ng/mL; Fz in rats [4, 5]: 5.3%
628 nM | CC(C)c1nc(CN2C(=O)N(C)C3(C2=O)C(=O)N(CC(=O)O)c2ccc(Cl)cc23)cs1 (stereo not drawn) [Example 5, [5′-chloro-1-[(2-isopropyl-1,3-thiazol-4-yl)methyl]-3-methyl-2,2′,5-trioxospiro[imidazolidine-4,3′-indol]-1′(2′H)-yl]acetic acid] | 
62 nM | CN1C(=O)N(Cc2cc(Cl)ccc2F)C(=O)C12C(=O)N(CC(=O)O)c1ccc(Cl)cc12 (stereo not drawn) [Example 1, [5′-chloro-1-(5-chloro-2-fluorobenzyl)-3-methyl-2,2′,5-trioxospiro[imidazolidine-4,3′-indol]-1′(2′H)-yl]acetic acid] | 
740 nM | CN1C(=O)N(CCc2ccccc2Cl)C(=O)C12C(=O)N(CC(=O)O)c1ccc(Cl)cc12 (stereo not drawn) [Example 12, [5′-chloro-1-[2-(2-chlorophenyl)ethyl]-3-methyl-2,2′,5-trioxospiro[imidazolidine-4,3′-indol]-1′(2′H)-yl]acetic acid] | 
916 nM | CN1C(=O)N(CCc2cccc(F)c2)C(=O)C12C(=O)N(CC(=O)O)c1ccc(Cl)cc12 (stereo not drawn) [Example 13, [15′-chloro-1-[2-(3-fluorophenyl)ethyl]-3-methyl-2,2′,5-trioxospiro[imidazolidine-4,3′-indol]-1′(2′H)-yl]acetic acid] | 
144 nM | CCCN1C(=O)N(Cc2cc(Cl)ccc2F)C(=O)C12C(=O)N(CC(=O)O)c1ccc(Cl)cc12 (single isomer, unassigned) [Example 4] | 
940 nM | CN1C(=O)N(CCc2ccccc2F)C(=O)C12C(=O)N(CC(=O)O)c1ccc(Cl)cc12 (stereo not drawn) [Example 14, [15′-chloro-1-[2-(2-fluorophenyl)ethyl]-3-methyl-2,2′,5-trioxospiro[imidazolidine-4,3′-indol]-1′(2′H)-yl]acetic acid] | 
363 nM | COc1c(C)cnc(CN2C(=O)N(C)C3(C2=O)C(=O)N(CC(=O)O)c2ccc(Cl)cc23)c1C (stereo not drawn) [Example 9, [5′-chloro-1-[(4-methoxy-3,5-dimethylpyridin-2-yl)methyl]-3-methyl-2,2′,5-trioxospiro[imidazolidine-4,3′-indol]-1′(2′H)-yl]acetic acid] | 
148 nM | Cc1onc(-c2ccccc2)c1CN1C(=O)N(C)C2(C1=O)C(=O)N(CC(=O)O)c1ccc(Cl)cc12 (stereo not drawn) [Example 7, [5′-chloro-3-methyl-1-[(5-methyl-3-phenylisoxazol-4-yl)methyl]-2,2′,5-trioxospiro[imidazolidine-4,3′-indol]-1′(2′H)-yl]acetic acid] | 
336 nM | CCN1C(=O)N(Cc2cc(Cl)ccc2F)C(=O)C12C(=O)N(CC(=O)O)c1ccc(Cl)cc12 (single isomer, unassigned; (+)) [Example 3, [(+)-5′-chloro-1-(5-chloro-2-fluorobenzyl)-3-ethyl-2,2′,5-trioxospiro[imidazolidine-4,3′-indol]-1′(2′H)-yl]acetic acid] | 
44 nM | CN1C(=O)N(Cc2csc(-c3ccccc3)n2)C(=O)C12C(=O)N(CC(=O)O)c1ccc(Cl)cc12 (stereo not drawn) [Example 8, [5′-chloro-3-methyl-2,2′,5-trioxo-1-[(2-phenyl-1,3-thiazol-4-yl)methyl] Spiro[imidazolidine-4,3′-indol]-1′(2′H)-yl]acetic acid] | 
123 nM | CN1C(=O)N(Cc2cn(-c3ccccc3)nc2-c2ccccc2)C(=O)C12C(=O)N(CC(=O)O)c1ccc(Cl)cc12 (stereo not drawn) [Example 6, [5′-chloro-1-[(1,3-diphenyl-1H-pyrazol-4-yl)methyl]-3-methyl-2,2′,5-trioxospiro[imidazolidine-4,3′-indol]1′(2′H)-yl]acetic acid] | 
498 nM | CN1C(=O)N(Cc2cc(F)ccc2F)C(=O)C12C(=O)N(CC(=O)O)c1ccc(Cl)cc12 (stereo not drawn) [Example 10, [5′-chloro-1-(2,5-difluorobenzyl)-3-methyl-2,2′,5-trioxospiro[imidazolidine-4,3′-indol]-1′(2′H)-yl]acetic acid] | 
551 nM | CN1C(=O)N(CCc2cccc(Cl)c2)C(=O)C12C(=O)N(CC(=O)O)c1ccc(Cl)cc12 (stereo not drawn) [Example 15, [15′-chloro-1-[2-(3-chlorophenyl)ethyl]-3-methyl-2,2′,5-trioxospiro[imidazolidine-4,3′-indol]-1′(2′H)-yl]acetic acid] | 
945 nM | CN1C(=O)N(Cc2nc3ccccc3s2)C(=O)C12C(=O)N(CC(=O)O)c1ccc(Cl)cc12 (stereo not drawn) [Example 11, [1-(1,3-benzothiazol-2-ylmethyl)-5′-chloro-3-methyl-2,2′,5-trioxospiro[imidazolidine-4,3′-indol]-1′(2′H)-yl]acetic acid] | 

— US20120115895A1, “TRICYCLIC INDOLE-DERIVED SPIRO DERIVATIVES AS CRTH2 MODULATORS” (Merck Serono S.A., priority 2009, published 2012)
